Counter-ions that a name gives are not always drawn.
Tests used:
[1] = target: T1, human α1a receptor (Homo sapiens, UniProt P35348); test: Radioligand binding ([3H]prazosin) at cloned human α1a receptor; conditions: hα1a; membranes of transfected LM(tk−) cells, [3H]prazosin 0.5 nM; read-out: Binding affinity hα1a
T1 construct: expressed in transfected cells
T1 sequence (P35348 1-466): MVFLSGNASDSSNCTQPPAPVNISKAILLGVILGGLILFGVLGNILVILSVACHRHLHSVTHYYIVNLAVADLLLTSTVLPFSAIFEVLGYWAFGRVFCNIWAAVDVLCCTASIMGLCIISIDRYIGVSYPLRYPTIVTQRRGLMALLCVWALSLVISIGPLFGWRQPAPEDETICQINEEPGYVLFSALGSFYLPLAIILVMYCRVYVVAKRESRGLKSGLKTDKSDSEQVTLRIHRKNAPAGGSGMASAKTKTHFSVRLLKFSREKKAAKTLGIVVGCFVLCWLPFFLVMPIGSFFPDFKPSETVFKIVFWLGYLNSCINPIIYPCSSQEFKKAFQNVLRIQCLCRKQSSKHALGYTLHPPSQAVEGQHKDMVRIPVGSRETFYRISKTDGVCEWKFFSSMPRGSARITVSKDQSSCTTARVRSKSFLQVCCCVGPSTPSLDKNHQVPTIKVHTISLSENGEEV
Description: The activity of compounds at the different human receptors was determined in vitro using cultured cell lines that selectively express the receptor of interest. These cell lines were prepared by transfecting the cloned cDNA or cloned genomic DNA or constructs containing both genomic DNA and cDNA encoding the human α-adrenergic receptors as follows:
α1a Human Adrenergic Receptor
The entire coding region of α1a (1401 bp), including 400 base pairs of 5′ untranslated sequence (5′ UT) and 200 bp of 3′ untranslated sequence (3′ UT), was cloned into the KpnI site of the polylinker-modified pCEXV-3-derived eukaryotic expression vector, EXJ.RH. The construct involved ligating three partial overlapping fragments: a 5′ 0.6 kb HincII genomic clone, a central 1.8 EcoRI hippocampal cDNA clone,. and a 3′ 0.6 Kb PstI genomic clone. The hippocampal cDNA fragment overlaps with the 5′ and 3′ genomic clones so that the HincII and PstI sites at the 5′ and 3′ ends of the cDNA clone, respectively, were utilized for ligation. This full-length clone was cloned into the KpnI site of the expression vector, using the 5′ and 3′ KpnI sites of the fragment, derived from vector (i.e., pBluescript) and 31-untranslated sequences, respectively. Stable cell lines were selected as described above. The stable cell line expressing the human α1a receptor used herein was designated L-α1C (old nomenclature) and was deposited with the American Type Culture Collection, 12301 Parklawn Drive, Rockville, Md. 20852, U.S.A. under the provisions of the Budapest Treaty for the International Recognition of the Deposit of Microorganisms for the Purposes of Patent Procedure. The cell line expressing the human α1a receptor was accorded Accession No. CR 11140, on Sep. 25, 1992.
Radioligand Binding Assays for α1 Receptors
Transfected cells from culture flasks were scraped into 5 ml of 5 mM Tris-HCl, 5 mM EDTA, pH 7.5, and lysed by sonication. The cell lysates were centrifuged at 1000 rpm for 5 min at 4° C., and the supernatant was centrifuged at 30,000×g for 20 min at 4° C. The pellet was suspended in 50 mM Tris-HCl, 1 mM MgCl2, and 0.1% ascorbic acid at pH 7.5. Binding of the α1 antagonist [^3H]prazosin (0.5 nM, specific activity 76.2 Ci/mmol) to membrane preparations of LM(tk−) cells was done in a final volume of 0.25 ml and incubated at 37° C. for 20 min. Nonspecific binding was determined in the presence of 10 μM phentolamine. The reaction was stopped by filtration through GF/B filters using a cell harvester. Inhibition experiments, routinely consisting of 7 concentrations of the tested compounds, were analyzed using a non-linear regression curve-fitting computer program to obtain Ki values.

[2] = target: T2, human α2c receptor (Homo sapiens, UniProt P18825); test: Competition binding ([3H]rauwolscine) at cloned human α2c receptor; conditions: transfected LM(tk−) cells, [3H]rauwolscine 0.5 nM; read-out: Binding affinity hα2c
T2 construct: expressed in transfected cells
T2 sequence (P18825 1-462): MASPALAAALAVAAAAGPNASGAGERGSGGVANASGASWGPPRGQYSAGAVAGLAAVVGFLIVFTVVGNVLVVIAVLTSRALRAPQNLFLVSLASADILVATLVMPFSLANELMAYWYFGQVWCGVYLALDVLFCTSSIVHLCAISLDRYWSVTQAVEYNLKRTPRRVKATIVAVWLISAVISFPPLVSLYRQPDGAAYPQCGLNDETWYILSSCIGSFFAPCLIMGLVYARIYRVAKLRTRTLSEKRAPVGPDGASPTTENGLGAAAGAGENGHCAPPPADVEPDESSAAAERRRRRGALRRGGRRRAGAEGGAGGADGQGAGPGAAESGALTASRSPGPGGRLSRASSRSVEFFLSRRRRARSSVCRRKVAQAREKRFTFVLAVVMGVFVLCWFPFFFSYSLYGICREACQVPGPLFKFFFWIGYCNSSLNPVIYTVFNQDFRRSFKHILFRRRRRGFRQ
From the text: α2 Human Adrenergic Receptors
To determine the potency of α1 antagonists at the α2 receptors, LM(tk−) cell lines stably transfected with the genes encoding the α2a, α2b, and α2c receptors were used. The cell line expressing the α2a receptor is designated L-α2A, and was deposited on Nov. 6, 1992 under ATCC Accession No. CRL 11180. The cell line expressing the α2b receptor is designated L-NGC-α2B, and was deposited on Oct. 25, 1989 under ATCC Accession No. CRL10275. The cell line expressing the α2c receptor is designated L-α2C, and was deposited on Nov. 6, 1992 under ATCC Accession No. CRL-11181. All the cell lines were deposited with the American Type Culture Collection, 12301 Parklawn Drive, Rockville, Md. 20852, U.S.A. under the provisions of the Budapest Treaty for the International Recognition of the Deposit of Microorganisms for the Purposes of Patent Procedure. Cell lysates were prepared as described above (see Radioligand Binding Assays), and suspended in 25 mM glycylglycine buffer (pH 7.6 at room temperature). Equilibrium competition binding assay were performed using [3H]rauwolscine (0.5 nM), and nonspecific binding was determined by incubation with 10 μM phentolamine. The bound radioligand was separated by filtration through GF/B filters using a cell harvester.

| SMILES | Ki [1] [nM] | Ki [2] [nM] |
| --- | --- | --- |
| COCC1=C(C(=O)OC)[C@H](c2ccc(F)c(F)c2)N(C(=O)NCCCO)C(=O)N1 [Compound 1, (+)-1,2,3,6-Tetrahydro-1-(3-hydroxypropyl)carboxamido-5-methoxycarbonyl-4-methoxymethyl-6-(3,4-difluorophenyl)-2-oxo-pyrimidine] | 260 | > 50000 |
| COCC1=C(C(=O)OC)[C@H](c2ccc(F)c(F)c2)N(C(=O)NCCCN2CCC(c3cccc[n+]3[O-])CC2)C(=O)N1 [Compound 2, (+)-1,2,3,6-Tetrahydro-1-{N-[4-(2-pyridyl)piperidin-1-yl]propyl}carboxamido-5-methoxycarbonyl-4-methoxymethyl-6-(3,4-difluorophenyl)-2-oxopyrimidine-pyridine-N-oxide hydrochloride] | 0.3 | 1500 |

Other lines, results leading:

| Ki [1] [nM] | Ki [2] [nM] | SMILES |
| --- | --- | --- |
| 3 | 1500 | O=C1OCC2=C1C(c1ccc(F)c(F)c1)N(C(=O)NCCCN1CCC(c3ccccn3)CC1)C(=O)N2 (single isomer, unassigned; (+)) [Compound 8, (+)-1-3-{[4-(3,4-Difluorophenyl)-2,5-dioxo-1,2,5,7-tetrahydro-4H-furo[3,4-d]-pyrimidine-3-carbonyl]amino}-propyl-4-(2-pyridyl)-piperidine] |
| 212 | 3390 | COCC1=C(C(=O)OC)[C@H](c2ccc(F)c(F)c2)N(C(=O)NCCC[n+]2ccc(-c3ccccn3)cc2)C(=O)N1 [Compound 3, 4-(2-Pyridyl)-1-{3-[5-carboxymethyl-4-methoxymethyl-2-oxo-6(S)-(3,4-difluorphenyl)-1,2,3,6-tetrahydropyrimidin-1-yl]carboxyaminopropyl}pyridinium chloride] |
| 0.8 | 260 | COC(=O)C1=C(CO)NC(=O)N(C(=O)NCCCN2CCC(c3ccccn3)CC2)[C@H]1c1ccc(F)c(F)c1 [Compound 7, (+)-1,2,3,6-Tetrahydro-1-{N-[4-(2-pyridyl)piperidin-1-yl]propyl}carboxamido-5-methoxycarbonyl-4-hydroxymethyl-6-(3,4-difluorophenyl)-2-oxopyrimidine] |
| > 500 | > 50000 | O=C(O)CCNC(=O)N1C(=O)NC2=C(C(=O)OC2)[C@@H]1c1ccc(F)c(F)c1 [Compound 9] |
